Converted amounts (≈) assume the structure as drawn.
system: MDCK cells; assay: not given; conditions: dog

SMILES | pharmaceutical toxicity / cytotoxicity
COc1cc([C@@H]2c3cc(OC)c(O)cc3C(=O)[C@@H](C)[C@H]2C)ccc1O [Wulignan A1] | more than 100 μg/ml
COc1cc2c(c(OC)c1OC)-c1c(cc3c(c1OC)OCO3)C[C@H](C)[C@@](C)(O)[C@H]2OC(=O)c1ccccc1 (atropisomer, axis not shown) [Benzoylgomisin P] | more than 100 μg/ml
C/C=C(\C)C(=O)O[C@H]1c2cc(OC)c(OC)c(OC)c2-c2c(cc3c(c2OC)OCO3)C[C@H](C)[C@@]1(C)O (atropisomer, axis not shown) [Tigloylgomisin P] | more than 100 μg/ml
COc1cc2c(cc1O)C(=O)[C@@H](C)[C@@H](C)[C@@H]2c1ccc(OC)c(OC)c1 [Schisandrone] | 100 µg/mL
COc1cc([C@@H]2c3cc(OC)c(O)cc3C(=O)[C@H](C)[C@H]2C)ccc1O [Epiwulignan A1] | more than 100 μg/ml

system: MDCK cells; assay: MTT cell survival of MDCK cells treated with sample alone (D group, pharmacotoxicity); conditions: 6.25 μg/ml

SMILES | cell survival ratio, D
COc1cc2c(cc1O)C(=O)[C@@H](C)[C@@H](C)[C@@H]2c1ccc(OC)c(OC)c1 [Schisandrone] | ++++ (key: +/−: cell survival ratio ≦25%; +: >25% but ≦50%; ++: >50% but ≦75%; +++: >75% but ≦100%; ++++: >100%)

same assay, conditions: 12.5 μg/ml

SMILES | cell survival ratio, D
COc1cc([C@@H]2c3cc(OC)c(O)cc3C(=O)[C@@H](C)[C@H]2C)ccc1O [Wulignan A1] | ++++ (key: +/−: cell survival ratio ≦25%; +: >25% but ≦50%; ++: >50% but ≦75%; +++: >75% but ≦100%; ++++: >100%)
COc1cc2c(c(OC)c1OC)-c1c(cc3c(c1OC)OCO3)C[C@H](C)[C@@](C)(O)[C@H]2OC(=O)c1ccccc1 (atropisomer, axis not shown) [Benzoylgomisin P] | ++++ (key: +/−: cell survival ratio ≦25%; +: >25% but ≦50%; ++: >50% but ≦75%; +++: >75% but ≦100%; ++++: >100%)
COc1cc([C@@H]2c3cc(OC)c(O)cc3C(=O)[C@H](C)[C@H]2C)ccc1O [Epiwulignan A1] | ++++ (key: +/−: cell survival ratio ≦25%; +: >25% but ≦50%; ++: >50% but ≦75%; +++: >75% but ≦100%; ++++: >100%)

system: influenza virus H1N1; assay: organism not typed; format: cell-based; conditions: 6.25 μg/ml; compound and H1N1 at the same time; MDCK (Table 10)

SMILES | cell survival ratio, D + V
COc1cc([C@@H]2c3cc(OC)c(O)cc3C(=O)[C@@H](C)[C@H]2C)ccc1O [Wulignan A1] | ++ (>50% but ≦75%)
COc1cc2c(c(OC)c1OC)-c1c(cc3c(c1OC)OCO3)C[C@H](C)[C@@](C)(O)[C@H]2OC(=O)c1ccccc1 (atropisomer, axis not shown) [Benzoylgomisin P] | ++ (>50% but ≦75%)
C/C=C(\C)C(=O)O[C@H]1c2cc(OC)c(OC)c(OC)c2-c2c(cc3c(c2OC)OCO3)C[C@H](C)[C@@]1(C)O (atropisomer, axis not shown) [Tigloylgomisin P] | +/− (cell survival ratio of ≦25%)
COc1cc2c(cc1O)C(=O)[C@@H](C)[C@@H](C)[C@@H]2c1ccc(OC)c(OC)c1 [Schisandrone] | + (>25% but ≦50%)
COc1cc([C@@H]2c3cc(OC)c(O)cc3C(=O)[C@H](C)[C@H]2C)ccc1O [Epiwulignan A1] | + (>25% but ≦50%)

same assay, conditions: 10 μg/ml; compound and H1N1 0.01 MOI at the same time; MDCK; 48 hrs (Table 9)

SMILES | cell survival ratio, D + V
COc1cc([C@@H]2c3cc(OC)c(O)cc3C(=O)[C@@H](C)[C@H]2C)ccc1O [Wulignan A1] | ++ (>50% but ≦75%)
COc1cc2c(c(OC)c1OC)-c1c(cc3c(c1OC)OCO3)C[C@H](C)[C@@](C)(O)[C@H]2OC(=O)c1ccccc1 (atropisomer, axis not shown) [Benzoylgomisin P] | +++ (>75% but ≦100%)
C/C=C(\C)C(=O)O[C@H]1c2cc(OC)c(OC)c(OC)c2-c2c(cc3c(c2OC)OCO3)C[C@H](C)[C@@]1(C)O (atropisomer, axis not shown) [Tigloylgomisin P] | +/− (cell survival ratio of ≦25%)
COc1cc2c(cc1O)C(=O)[C@@H](C)[C@@H](C)[C@@H]2c1ccc(OC)c(OC)c1 [Schisandrone] | ++ (>50% but ≦75%)
COc1cc([C@@H]2c3cc(OC)c(O)cc3C(=O)[C@H](C)[C@H]2C)ccc1O [Epiwulignan A1] | + (>25% but ≦50%)

same assay, conditions: 12.5 μg/ml; compound and H1N1 at the same time; MDCK (Table 10)

SMILES | cell survival ratio, D + V
COc1cc([C@@H]2c3cc(OC)c(O)cc3C(=O)[C@@H](C)[C@H]2C)ccc1O [Wulignan A1] | +++ (>75% but ≦100%)
C/C=C(\C)C(=O)O[C@H]1c2cc(OC)c(OC)c(OC)c2-c2c(cc3c(c2OC)OCO3)C[C@H](C)[C@@]1(C)O (atropisomer, axis not shown) [Tigloylgomisin P] | +/− (cell survival ratio of ≦25%)
COc1cc2c(cc1O)C(=O)[C@@H](C)[C@@H](C)[C@@H]2c1ccc(OC)c(OC)c1 [Schisandrone] | ++++ (>100%)

same assay, conditions: 25 μg/ml; compound and H1N1 at the same time; MDCK (Table 10)

SMILES | cell survival ratio, D + V
COc1cc([C@@H]2c3cc(OC)c(O)cc3C(=O)[C@@H](C)[C@H]2C)ccc1O [Wulignan A1] | ++++ (>100%)
COc1cc2c(c(OC)c1OC)-c1c(cc3c(c1OC)OCO3)C[C@H](C)[C@@](C)(O)[C@H]2OC(=O)c1ccccc1 (atropisomer, axis not shown) [Benzoylgomisin P] | ++++ (>100%)
C/C=C(\C)C(=O)O[C@H]1c2cc(OC)c(OC)c(OC)c2-c2c(cc3c(c2OC)OCO3)C[C@H](C)[C@@]1(C)O (atropisomer, axis not shown) [Tigloylgomisin P] | + (>25% but ≦50%)
COc1cc2c(cc1O)C(=O)[C@@H](C)[C@@H](C)[C@@H]2c1ccc(OC)c(OC)c1 [Schisandrone] | ++++ (>100%)
COc1cc([C@@H]2c3cc(OC)c(O)cc3C(=O)[C@H](C)[C@H]2C)ccc1O [Epiwulignan A1] | +++ (>75% but ≦100%)

same assay, conditions: 50 μg/ml; compound and H1N1 0.01 MOI at the same time; MDCK; 48 hrs (Table 9)

SMILES | cell survival ratio, D + V
COc1cc([C@@H]2c3cc(OC)c(O)cc3C(=O)[C@@H](C)[C@H]2C)ccc1O [Wulignan A1] | ++++ (>100%)
COc1cc2c(c(OC)c1OC)-c1c(cc3c(c1OC)OCO3)C[C@H](C)[C@@](C)(O)[C@H]2OC(=O)c1ccccc1 (atropisomer, axis not shown) [Benzoylgomisin P] | ++++ (>100%)
C/C=C(\C)C(=O)O[C@H]1c2cc(OC)c(OC)c(OC)c2-c2c(cc3c(c2OC)OCO3)C[C@H](C)[C@@]1(C)O (atropisomer, axis not shown) [Tigloylgomisin P] | +++ (>75% but ≦100%)
COc1cc2c(cc1O)C(=O)[C@@H](C)[C@@H](C)[C@@H]2c1ccc(OC)c(OC)c1 [Schisandrone] | ++++ (>100%)
COc1cc([C@@H]2c3cc(OC)c(O)cc3C(=O)[C@H](C)[C@H]2C)ccc1O [Epiwulignan A1] | ++++ (>100%)

same assay, conditions: 50 μg/ml; compound and H1N1 at the same time; MDCK (Table 10)

SMILES | cell survival ratio, D + V
COc1cc([C@@H]2c3cc(OC)c(O)cc3C(=O)[C@@H](C)[C@H]2C)ccc1O [Wulignan A1] | ++++ (>100%)
COc1cc2c(c(OC)c1OC)-c1c(cc3c(c1OC)OCO3)C[C@H](C)[C@@](C)(O)[C@H]2OC(=O)c1ccccc1 (atropisomer, axis not shown) [Benzoylgomisin P] | ++++ (>100%)
C/C=C(\C)C(=O)O[C@H]1c2cc(OC)c(OC)c(OC)c2-c2c(cc3c(c2OC)OCO3)C[C@H](C)[C@@]1(C)O (atropisomer, axis not shown) [Tigloylgomisin P] | ++++ (>100%)
COc1cc2c(cc1O)C(=O)[C@@H](C)[C@@H](C)[C@@H]2c1ccc(OC)c(OC)c1 [Schisandrone] | ++++ (>100%)
COc1cc([C@@H]2c3cc(OC)c(O)cc3C(=O)[C@H](C)[C@H]2C)ccc1O [Epiwulignan A1] | ++++ (>100%)

same assay, conditions: 75 μg/ml; compound and H1N1 at the same time; MDCK (Table 10)

SMILES | cell survival ratio, D + V
COc1cc([C@@H]2c3cc(OC)c(O)cc3C(=O)[C@@H](C)[C@H]2C)ccc1O [Wulignan A1] | ++++ (>100%)
COc1cc2c(c(OC)c1OC)-c1c(cc3c(c1OC)OCO3)C[C@H](C)[C@@](C)(O)[C@H]2OC(=O)c1ccccc1 (atropisomer, axis not shown) [Benzoylgomisin P] | ++++ (>100%)
C/C=C(\C)C(=O)O[C@H]1c2cc(OC)c(OC)c(OC)c2-c2c(cc3c(c2OC)OCO3)C[C@H](C)[C@@]1(C)O (atropisomer, axis not shown) [Tigloylgomisin P] | ++++ (>100%)
COc1cc2c(cc1O)C(=O)[C@@H](C)[C@@H](C)[C@@H]2c1ccc(OC)c(OC)c1 [Schisandrone] | ++++ (>100%)
COc1cc([C@@H]2c3cc(OC)c(O)cc3C(=O)[C@H](C)[C@H]2C)ccc1O [Epiwulignan A1] | ++++ (>100%)

same assay, conditions: 100 μg/ml; compound and H1N1 at the same time; MDCK (Table 10)

SMILES | cell survival ratio, D + V
COc1cc([C@@H]2c3cc(OC)c(O)cc3C(=O)[C@@H](C)[C@H]2C)ccc1O [Wulignan A1] | ++++ (>100%)
COc1cc2c(c(OC)c1OC)-c1c(cc3c(c1OC)OCO3)C[C@H](C)[C@@](C)(O)[C@H]2OC(=O)c1ccccc1 (atropisomer, axis not shown) [Benzoylgomisin P] | ++++ (>100%)
C/C=C(\C)C(=O)O[C@H]1c2cc(OC)c(OC)c(OC)c2-c2c(cc3c(c2OC)OCO3)C[C@H](C)[C@@]1(C)O (atropisomer, axis not shown) [Tigloylgomisin P] | ++++ (>100%)
COc1cc2c(cc1O)C(=O)[C@@H](C)[C@@H](C)[C@@H]2c1ccc(OC)c(OC)c1 [Schisandrone] | +/− (cell survival ratio of ≦25%)
COc1cc([C@@H]2c3cc(OC)c(O)cc3C(=O)[C@H](C)[C@H]2C)ccc1O [Epiwulignan A1] | ++++ (>100%)

same assay, conditions: influenza virus H1N1; MDCK cells; MTT

SMILES | MIC, H1N1
C/C=C(\C)C(=O)O[C@H]1c2cc(OC)c(OC)c(OC)c2-c2c(cc3c(c2OC)OCO3)C[C@H](C)[C@@]1(C)O (atropisomer, axis not shown) [Tigloylgomisin P] | 50.0 µg/mL (≈ 97.2 µM)
COc1cc([C@@H]2c3cc(OC)c(O)cc3C(=O)[C@H](C)[C@H]2C)ccc1O [Epiwulignan A1] | 25.0 µg/mL (≈ 73 µM)

same assay, conditions: influenza virus H1N1; MDCK cells; MTT; read-out: MIC, H1N1

SMILES | MIC
C/C=C(\C)C(=O)O[C@H]1c2cc(OC)c(OC)c(OC)c2-c2c(cc3c(c2OC)OCO3)C[C@H](C)[C@@]1(C)O (atropisomer, axis not shown) [Tigloylgomisin P] | 50 µg/mL (≈ 97.2 µM)
COc1cc2c(cc1O)C(=O)[C@@H](C)[C@@H](C)[C@@H]2c1ccc(OC)c(OC)c1 [Schisandrone] | 12.5 µg/mL (≈ 35.1 µM)
COc1cc([C@@H]2c3cc(OC)c(O)cc3C(=O)[C@H](C)[C@H]2C)ccc1O [Epiwulignan A1] | 25 µg/mL (≈ 73 µM)

same assay, conditions: read-out: MIC, H1N1

SMILES | MIC
COc1cc([C@@H]2c3cc(OC)c(O)cc3C(=O)[C@@H](C)[C@H]2C)ccc1O [Wulignan A1] | 12.5 µg/mL (≈ 36.5 µM)
COc1cc2c(c(OC)c1OC)-c1c(cc3c(c1OC)OCO3)C[C@H](C)[C@@](C)(O)[C@H]2OC(=O)c1ccccc1 (atropisomer, axis not shown) [Benzoylgomisin P] | 12.5 µg/mL (≈ 23.3 µM)
NC(=O)c1ncn([C@@H]2O[C@H](CO)[C@@H](O)[C@H]2O)n1 [Ribavirin, ribavirin, reference compound] | 3.12 µg/mL (≈ 12.8 µM)

— patent US8414938B2, “Schisandrae fructus extracts for inhibition or prevention of H1N1 influenza virus infection and its application thereof” (National Defense Medical Center, priority 2011, dated 2013)
